Results as given in patent US8148391B2 (Cephalon, Inc., priority 2006, dated 2012).
pIC50: −log10 of the molar value. Where two headings read alike, the source gives them in different places.

Columns and labels:
[1] = target: T1, baculovirus-expressed ALK (Homo sapiens, UniProt Q9UM73); assay: ALK Kinase Assay (ELISA-type, time-resolved fluorescence); type: biochemical
T1 construct: host or cells: baculovirus expression system
In short: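 Plates coated with phospholipase C-γ substrate (10 μg/mL in TBS); reaction started with 30 ng/ml ALK and run 15 min at 37° C. Phosphorylated substrate detected with Eu-N1-labeled PT66 antibody. IC50 from sigmoidal variable-slope fit of percent inhibition vs log concentration.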

[2] = target: T2, c-Met (cytoplasmic domain) (Homo sapiens, UniProt P08581); assay: c-Met Kinase Assay (same methods as for ALK, with modifications); type: biochemical
T2 construct: 10 ng/mL c-Met (cytoplasmic domain, Invitrogen Corporation #PV3143); purchased Invitrogen Corporation PV3143
In short: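 Plates were coated with phospholipase C-γ substrate (10 μg/mL) in TBS, and the reaction was started with 10 ng/mL c-Met cytoplasmic domain and run 15 min at 37 °C. Phosphoproduct was detected with Eu-N1-labelled PT66 antibody. IC50 came from a variable-slope sigmoidal fit of percent inhibition vs log concentration.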

[3] = 1 μM ATP (Km level), read-out: ALK Activity (ALK Kinase Inhibition, IC50)
[4] = 1 μM ATP (Km level), read-out: cMet Activity (c-Met Kinase Inhibition, IC50)
[5] = ALK kinase inhibition, 1 μM ATP (Km level), read-out: ALK Activity
[6] = c-Met kinase inhibition, 1 μM ATP (Km level), read-out: cMet Activity

T1 sequence (Q9UM73 19-1620): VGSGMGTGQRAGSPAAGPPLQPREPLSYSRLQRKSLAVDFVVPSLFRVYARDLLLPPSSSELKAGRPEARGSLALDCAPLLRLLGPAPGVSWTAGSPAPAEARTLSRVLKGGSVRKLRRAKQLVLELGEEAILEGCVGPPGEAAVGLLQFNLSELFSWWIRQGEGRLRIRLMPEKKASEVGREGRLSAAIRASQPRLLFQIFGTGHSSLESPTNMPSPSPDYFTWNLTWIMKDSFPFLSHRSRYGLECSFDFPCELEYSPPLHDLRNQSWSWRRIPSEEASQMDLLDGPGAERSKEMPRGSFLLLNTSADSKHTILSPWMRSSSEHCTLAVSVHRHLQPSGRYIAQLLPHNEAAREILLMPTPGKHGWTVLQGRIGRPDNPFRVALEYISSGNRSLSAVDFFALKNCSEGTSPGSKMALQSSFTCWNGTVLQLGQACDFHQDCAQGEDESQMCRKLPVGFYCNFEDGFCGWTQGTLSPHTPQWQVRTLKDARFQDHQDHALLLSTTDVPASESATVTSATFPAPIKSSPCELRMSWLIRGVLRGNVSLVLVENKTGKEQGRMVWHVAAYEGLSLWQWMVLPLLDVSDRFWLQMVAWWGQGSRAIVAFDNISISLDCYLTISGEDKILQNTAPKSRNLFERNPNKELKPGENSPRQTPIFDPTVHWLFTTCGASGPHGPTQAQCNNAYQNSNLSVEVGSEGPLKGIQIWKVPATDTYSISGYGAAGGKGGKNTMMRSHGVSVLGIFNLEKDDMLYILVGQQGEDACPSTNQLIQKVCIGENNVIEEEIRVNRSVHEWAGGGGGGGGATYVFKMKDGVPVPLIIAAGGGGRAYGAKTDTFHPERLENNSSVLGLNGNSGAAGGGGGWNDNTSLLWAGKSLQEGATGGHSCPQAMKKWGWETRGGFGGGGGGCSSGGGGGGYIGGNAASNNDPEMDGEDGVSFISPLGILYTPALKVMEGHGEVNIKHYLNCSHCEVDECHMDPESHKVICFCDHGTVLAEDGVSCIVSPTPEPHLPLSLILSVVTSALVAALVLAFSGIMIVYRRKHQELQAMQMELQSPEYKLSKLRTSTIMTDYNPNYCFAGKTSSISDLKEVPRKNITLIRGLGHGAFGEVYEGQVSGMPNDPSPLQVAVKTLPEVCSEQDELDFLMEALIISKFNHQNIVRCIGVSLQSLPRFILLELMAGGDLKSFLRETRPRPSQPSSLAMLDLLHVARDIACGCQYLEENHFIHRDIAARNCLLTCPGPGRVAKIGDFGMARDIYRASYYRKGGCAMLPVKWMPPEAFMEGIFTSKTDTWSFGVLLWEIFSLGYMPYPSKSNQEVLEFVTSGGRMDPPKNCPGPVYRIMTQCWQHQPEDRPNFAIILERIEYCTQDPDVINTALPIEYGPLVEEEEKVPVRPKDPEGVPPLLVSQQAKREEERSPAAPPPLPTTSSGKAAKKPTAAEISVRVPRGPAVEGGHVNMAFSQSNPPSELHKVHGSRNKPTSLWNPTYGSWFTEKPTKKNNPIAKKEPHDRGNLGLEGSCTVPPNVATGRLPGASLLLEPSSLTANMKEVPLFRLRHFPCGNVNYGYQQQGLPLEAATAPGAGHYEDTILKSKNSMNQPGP
T2 sequence (P08581 956-1390 limits assumed): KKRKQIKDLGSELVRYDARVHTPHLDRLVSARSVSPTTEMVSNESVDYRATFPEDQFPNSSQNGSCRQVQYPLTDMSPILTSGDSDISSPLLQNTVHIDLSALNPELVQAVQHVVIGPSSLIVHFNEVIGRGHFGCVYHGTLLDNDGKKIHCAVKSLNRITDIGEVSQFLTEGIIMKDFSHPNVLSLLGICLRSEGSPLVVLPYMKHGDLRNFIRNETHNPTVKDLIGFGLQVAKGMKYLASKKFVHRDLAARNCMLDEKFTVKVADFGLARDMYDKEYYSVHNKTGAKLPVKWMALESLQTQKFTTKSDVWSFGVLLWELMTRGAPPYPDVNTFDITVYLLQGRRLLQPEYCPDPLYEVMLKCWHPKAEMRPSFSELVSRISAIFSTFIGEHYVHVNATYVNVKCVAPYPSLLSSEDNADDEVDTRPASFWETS

Row | pIC50 [1, 3] | pIC50 [2, 4] | pIC50 [1, 5] | pIC50 [2, 6] | Compound | further results
1 | > 7.00 | < 5.00 | – | – | COc1cc2c(cc1Nc1ncc(Cl)c(N[C@H]3[C@@H](C(N)=O)[C@@H]4C=C[C@H]3C4)n1)CCN(CC(F)F)CC2 (relative stereo) [Example 763, (2-exo,3-exo)-3-{5-Chloro-2-[3-(2,2-difluoro-ethyl)-8-methoxy-2,3,4,5-tetrahydro-1H-benzo[d]azepin-7-ylamino]-pyrimidin-4-ylamino}-bicyclo[2.2.1]hept-5-ene-2-carboxylic acid amide] | –
2 | 6.00 to 7.00 | 5.00 to 6.00 | – | – | CC1(C)CCC(=O)Nc2ccc(Nc3ncc(Cl)c(Nc4ccccc4-c4nc(C(F)(F)F)c[nH]4)n3)cc21 [Example 1010, 7-{5-Chloro-4-[2-(4-trifluoromethyl-1H-imidazol-2-yl)-phenylamino]-pyrimidin-2-ylamino}-5,5-dimethyl-1,3,4,5-tetrahydro-benzo[b]azepin-2-one] | –
3 | > 7.00 | 6.00 to 7.00 | – | – | COCCN1CCc2ccc(Nc3ncc(Cl)c(Nc4ccccc4-c4nc(C(F)(F)F)c[nH]4)n3)cc2CC1 [Example 1011, 5-Chloro-N*2*-[3-(2-methoxy-ethyl)-2,3,4,5-tetrahydro-1H-benzo[d]azepin-7-yl]-N*4*-[2-(4-trifluoromethyl-1H-imidazol-2-yl)-phenyl]-pyrimidine-2,4-diamine] | –

Continued, compound first:

Row | Compound | pIC50 [1, 3] | pIC50 [2, 4] | pIC50 [1, 5] | pIC50 [2, 6] | further results
4 | CNC(=O)c1cccc(Cl)c1Nc1nc(Nc2ccc3c(c2)CCC(=O)NC3(C)C)ncc1Cl [Example 1828, 3-Chloro-2-(5-chloro-2-(1,1-dimethyl-3-oxo-2,3,4,5-tetrahydro-1H-benzo[c]azepin-7-ylamino)pyrimidin-4-ylamino)-N-methylbenzamide] | – | – | – | – | pIC50 ([1]; ALK kinase inhibition, 1 μM ATP, read-out: ALK Activity): > 7.00; pIC50 ([2]; c-Met kinase inhibition, 1 μM ATP, read-out: cMet Activity): > 7.00
5 | CCNC(=O)c1ccccc1Nc1nc(Nc2cc3c(cc2OC)CC(=O)NCC3)ncc1Cl [Example 265, 2-[5-Chloro-2-(8-methoxy-2-oxo-2,3,4,5-tetrahydro-1H-benzo[d]azepin-7-ylamino)-pyrimidin-4-ylamino]-N-ethyl-benzamide] | – | – | > 7.00 | 6.00 to 7.00 | –
6 | COc1cc2c(cc1Nc1ncc(Cl)c(Nc3ccc(N4CCC(C(=O)O)CC4)cc3-n3cccn3)n1)CCN(CC(=O)N(C)C)CC2 [Example 630, 1-{4-[5-Chloro-2-(3-dimethylcarbamoylmethyl-8-methoxy-2,3,4,5-tetrahydro-1H-benzo[d]azepin-7-ylamino)-pyrimidin-4-ylamino]-3-pyrazol-1-yl-phenyl}-piperidine-4-carboxylic acid] | > 7.00 | < 5.00 | – | – | –
7 | CCN1C(=O)C(NC(=O)CN(C)C)CCc2c1ccc(Nc1ncc(Cl)c(Nc3ccccc3S(=O)(=O)N(C)C)n1)c2OC (centres unmarked) [Example 1356, N-{7-[5-Chloro-4-(2-dimethylsulfamoyl-phenylamino)-pyrimidin-2-ylamino]-1-ethyl-6-methoxy-2-oxo-2,3,4,5-tetrahydro-1H-benzo[b]azepin-3-yl}-2-dimethylamino-acetamide] | – | – | – | – | pIC50 ([1]; 1 μM ATP (Km level), 30 ng/ml ALK, 37° C., 15 minutes, read-out: ALK Activity (ALK kinase inhibition, IC50 class)): > 7.00; pIC50 ([2]; 1 μM ATP (Km level), 10 ng/mL c-Met, read-out: cMet Activity (c-Met kinase inhibition, IC50 class)): < 5.00
8 | CCN1CCN(CC)c2cc(Nc3ncc(Cl)c(Nc4ccc(N5CCOCC5)cc4OC)n3)ccc2C1 [Example 712, 5-Chloro-N*2*-(1,4-diethyl-2,3,4,5-tetrahydro-1H-benzo[e][1,4]diazepin-8-yl)-N*4*-(2-methoxy-4-morpholin-4-yl-phenyl)-pyrimidin-2,4-diamine] | > 7.00 | 5.00 to 6.00 | – | – | –
9 | COCCN1CCc2ccc(Nc3ncc(Cl)c(N[C@@H]4CCCC[C@H]4O)n3)cc2CC1 (relative stereo) [Example 318, trans-2-{5-Chloro-2-[3-(2-methoxy-ethyl)-2,3,4,5-tetrahydro-1H-benzo[d]azepin-7-ylamino]-pyrimidin-4-ylamino}-cyclohexanol] | – | – | 5.00 to 6.00 | < 5.00 | –
10 | C#CCN1CCc2ccc(Nc3ncc(Cl)c(Nc4ccccc4C(=O)NC)n3)cc2CC1 [Example 322, 2-[5-Chloro-2-(3-prop-2-ynyl-2,3,4,5-tetrahydro-1H-benzo[d]azepin-7-ylamino)-pyrimidin-4-ylamino]-N-methyl-benzamide] | – | – | > 7.00 | > 7.00 | –
